Source: patent publication US9856480B2, “Dnazyme for silencing the expression of EGFR” (DCB-USA LLC, priority 2013, dated 2018)
Strand notation (5' to 3'): a small letter for the sugar, then the base; units joined by * are phosphorothioate-linked, units joined directly phosphodiester-linked; [ ] holds rarer units or linkages, { } end groups; capitals alone tell only the bases. d = 2'-deoxy (DNA)

Key:
[1] = tested on: wild-type EGFR; experiment: Western immunoblotting of EGFR expression and downstream signaling in wild-type EGFR cell lines; format: cell-based, human; settings: A549 and CL1-5 cells, 100 nM
Experimental: A549, CL1-5, H1975, or CL97 was seeded onto 6-well at 3×10^5 cells/well and cultured overnight. Then, cells were separately treated with 100 nM DzControl or DzT790M-1 with lipofectamine 2000 (Invitrogen). The transfected A549 and CL1-5 cells were serum-starved for 24 h and treated with 100 ng/ml of EGF at 37° C. for 15 min. 72 h after transfection, cell were collected for analysis. Cells were washed twice by ice-cold PBS and then total protein was extracted by RIPA buffer with protease inhibitor (Roche). 50 μg of total protein from the supernatants were boiled for 5 min at 95° C. The samples were resolved on 10% SDS-PAGE gel and transferred onto nitrocellulose membranes. EGFR expression and downstream signaling were detected by using primary antibodies specific to human pEGFR(Y1068) (Cell signaling), tEGFR (Santa Cruz), pSTAT3 (Y705) (Cell signaling), tSTAT3 (Cell signaling), pAKT (5473)(Cell signaling), tAKT (Santa Cruz), pERK (T202/Y204) (Cell signaling), tERK (Santa Cruz), and cleaved PARP (Cell signaling) at 1:1000 dilution and β-actin (Santa Cruz) at 1:10000 dilution, respectively. Secondary antibodies against rabbit IgG or mouse IgG was used at 1:5000 dilution. Protein bands on membrane were visualized by exposure to the chemiluminescence substrate.
EGFR belongs to receptor tyrosine kinases. The binding of its extracellular ligands triggers receptor dimerization, tyrosine residues phosphorylation, and downstream signaling activation including signal transducer and activator of transcription 3 (STAT3), Akt, extracellular signal regulated kinases (ERK), and others. To examine the effects of DzT790M on protein expression level of EGFR and its downstream signaling, western immunoblotting was performed on DzT790M transfected cells. A549, CL1-5, H1975, or CL97 was seeded onto 6-well at 3×10^5 cells/well and cultured overnight. Then, cells were separately treated with 100 nM DzControl or DzT790M-1 with lipofectamine 2000 (Invitrogen). The transfected A549 and CL1-5 cells were serum-starved for 24 h and treated with 100 ng/ml of EGF at 37° C. for 15 min. 72 h after transfection, cell were collected for analysis. Cells were washed twice by ice-cold PBS and then total protein was extracted by RIPA buffer with protease inhibitor (Roche). […] Also, activation of downstream STAT3, AKT, and ERK signaling after EGF treatment were not inhibited by DzT790M-1 or DzT790M-2 transfection.
CL1-5 (EGFR wild-type) or H1975 (EGFR T790M) were seeded onto 6-well at 3×10^5 cells/well and cultured overnight. […] The transfected CL1-5 cells were serum-starved for 24 h and treated with 100 ng/ml of EGF at 37° C. for 15 min. 72 h after transfection, cells were collected for western blotting analysis following the above mentioned procedure. […]

[2] = tested on: wild-type EGFR mRNA; experiment: Quantitative real-time PCR of EGFR mRNA knockdown; format: cell-based, human; settings: 100 nM, 48 h
Experimental: A549, CL1-5, H1975, or CL97 was seeded onto 6-well at 3×10^5 cells/well and cultured overnight. Then, cells were separately treated with 100 nM DzControl or DzT790M-1 with lipofectamine 2000 (Invitrogen). After 48 h, total mRNA were extracted from DNAzyme-treated cells by Mestrisol following manufacturer's protocol. cDNA were synthesized by using RT III kit with random hexamers as primers (Invitrogen). The PCR primers were synthesized by Genomics BioSci & Tech (Taipei, Taiwan). The sequences of PCR primers are listed as follows: […]
The parameters for PCR were: 95° C. for 10 min, then 25 cycles of PCR at 95° C. for 30 s, 60° C. for 30 s, and 72° C. for 60 s. 3% agarose gels were used for electrophoresis of PCR products. The intensity of bands were quantified by Image J. Quantitative RT-PCR was performed on 40 ng total mRNA with the LightCycler 480 system (Roche). The PCR mix contained 5 μl of 2× Probe Master mix, 100 nM of UPL probe (Roche Diagnostics, Penzberg, Germany), 200 nM of forward primer and reverse primer, 0.1 ul RNAseout (Invitrogen), and 0.025 ul RTIII enzyme (Invitrogen) in a total volume of 10 μl. PCR parameters were as follows: 50° C. for 40 min, then 45 cycles of PCR at 95° C. for 10 s, 60° C. for 10 s, and 72° C. for 2 s. Data were analyzed by LC480 software (Roche Diagnostics, Penzberg, Germany). The relative amount of EGFR mRNA was normalized to ACTB mRNA. The sequences of PCR primers are as follows: […]
To examine the allele selectivity of DzT790M-1, EGFR mRNA knockdown efficiency was detected in two cell lines harboring wild-type EGFR (A549, CL1-5) and two cell lines containing EGFR T790M mutation (H1975, CL97). A549, CL1-5, H1975, or CL97 was seeded onto 6-well at 3×10^5 cells/well and cultured overnight. […]
Then, A549 and PC9 cells were separately treated with 50, 100, or 150 nM control DNAzyme or DzEGFR—ΔE746-A750 with Lipofectamine 2000 for 48 h. […] Quantitative RT-PCR was performed on 40 ng total mRNA with the LightCycler 480 system (Roche). […] Data were analyzed by LC480 software (Roche Diagnostics). […]

## DzT790M-1: 10-23 DNAzyme against EGFR T790M mRNA, arms 10/4, phosphorothioate ends: AGCTGCATGAGGCTAGCTACAACGAGAGC (DNA dA*dGdCdTdGdCdAdTdGdAdGdGdCdTdAdGdCdTdAdCdAdAdCdGdAdGdAdG*dC; further chemistry not fully specified)
[1]; 100 ng/ml EGF 15 min
  activation of downstream STAT3, AKT, and ERK signaling after EGF treatment: not inhibited
[1]; 72 h after transfection
  protein level of EGFR compared to DzControl group: did not decreased
[2]; A549 cells
  wild-type EGFR mRNA knockdown: 1.1%
[2]; CL1-5 cells
  wild-type EGFR mRNA knockdown: 19.2%
